{
  "source": "ChEMBL document CHEMBL3351821",
  "about": "“Naturally occurring N(6)-substituted adenosines (cytokinin ribosides) are in vitro inhibitors of platelet aggregation: an in silico evaluation of their interaction with the P2Y(12) receptor” (Bioorg Med Chem Lett, 2014)",
  "tested_on": "Platelet",
  "assay": "Inhibition of collagen-induced human platelet aggregation after 3 mins by light transmission aggregometry",
  "assay_type": "functional, cell-based",
  "settings": "for IC50: 0.05 h",
  "note": "Calls of active or inactive are those of the source. No cut-off for these calls is given here.",
  "data": [
    {"smiles": "OC[C@H]1O[C@@H](n2cnc3c(NCc4ccccc4)ncnc32)[C@H](O)[C@@H]1O", "note": "[N6-BENZYLADENOSINE]", "values": [
      {"measurement": "IC50", "result": 37.1, "unit": "µM"}
    ]},
    {"smiles": "OC[C@H]1O[C@@H](n2cnc3c(NCc4ccco4)ncnc32)[C@H](O)[C@@H]1O", "note": "[KINETIN RIBOSIDE]", "values": [
      {"measurement": "IC50", "result": 41.2, "unit": "µM"}
    ]},
    {"smiles": "OC[C@H]1O[C@@H](n2cnc3c(NCc4ccc(O)cc4)ncnc32)[C@H](O)[C@@H]1O", "values": [
      {"measurement": "IC50", "result": 6.77, "unit": "µM"}
    ]},
    {"smiles": "c1coc(CNc2ncnc3[nH]cnc23)c1", "values": [
      {"measurement": "inhibition", "result": "Active"}
    ]},
    {"smiles": "CC(C)=CCNc1ncnc2c1ncn2[C@@H]1O[C@H](CO)[C@@H](O)[C@H]1O", "note": "[RIBOPRINE]", "values": [
      {"measurement": "IC50", "result": 142, "unit": "µM"}
    ]}
  ]
}
